Holding throughout (type): cell-based
The test system of experiment [1] is Aβ42. As to the kind of experiment: Screening for γ-secretase-modulating activity, Method 1: Aβ42 sandwich ELISA in supernatant of SKNBE2 cells carrying APP 695 wild type (Tables 12a, 12b). The conditions noted are these: Table 12b, Method 1, SKNBE2 cells carrying APP 695 wild type, cell supernatant ELISA, averaged IC50 values, percentage of control vs log concentration. The essentials: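 Aβ42 levels in the supernatant were measured by ELISA with 450 nm colorimetric read-out after 18 h compound exposure of wild-type APP695 SKNBE2 cells plated one day earlier. IC50 was fitted with a 4-parameter model, either with fixed top/bottom and a Hill slope of 1, or as averaged values from % of vehicle control; WST-1 was used to flag cytotoxicity.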
In general terms: An ELISA detects its analyte on a solid surface through an enzyme-linked reagent.

Experiment [2] relates to Aβtotal. The experiment in a line: Screening for γ-secretase-modulating activity, Method 1: Aβtotal sandwich ELISA in supernatant of SKNBE2 cells carrying APP 695 wild type (Tables 12a, 12b). The conditions noted are these: Table 12b, Method 1, SKNBE2 cells carrying APP 695 wild type, cell supernatant ELISA, averaged IC50 values. The essentials:
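Aβtotal in conditioned medium was measured by 6E10/biotin-4G8 sandwich ELISA with fluorogenic peroxidase read-out. Cells were wild-type APP 695 SKNBE2, treated 18 hours in glutamine-supplemented Ultraculture. IC50 came from 4-parameter fits of inhibition, or percent of control, against concentration; toxicity was checked by WST-1.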

Experiment [3] has as its system Aβ42. The experiment in a line: Screening for γ-secretase-modulating activity, Method 2: Aβ42 Alphalisa in supernatant of SKNBE2 cells carrying APP 695 wild type (Table 12c). The conditions noted are these: Method 2, Table 12c, incubated overnight. How it is done:
(§1) Screening was carried out using SKNBE2 cells carrying the APP 695—wild type, grown in Dulbecco's Modified Eagle's Medium/Nutrient mixture F-12 (DMEM/NUT-mix F-12) (HAM) provided by Invitrogen (cat no. 10371-029) containing 5% Serum/Fe supplemented with 1% non-essential amino acids, 1-glutamine 2 mM, Hepes 15 mM, penicillin 50 U/ml (units/ml) en streptomycin 50 μg/ml. Cells were grown to near confluency.
(§2) The screening was performed using a modification of the assay as described in Citron et al (1997) Nature Medicine 3: 67. Briefly, cells were plated in a 384-well plate at 10^4 cells/well in Ultraculture (Lonza, BE12-725F) supplemented with 1% glutamine (Invitrogen, 25030-024), 1% non-essential amino acid (NEAA), penicillin 50 U/ml en streptomycin 50 μg/ml in the presence of test compound at different test concentrations. The cell/compound mixture was incubated overnight at 37° C., 5% CO2, The next day the media were assayed by two sandwich immuno-assays, for Aβ42 and Aβtotal.
(§3) Aβtotal and Aβ42 concentrations were quantified in the cell supernatant using the Aphalisa technology (Perkin Elmer). Alphalisa is a sandwich assay using biotinylated antibody attached to streptavidin coated donorbeads and antibody conjugated to acceptor beads. In the presence of antigen, the beads come into close proximity. The excitation of the donor beads provokes the release of singlet oxygen molecules that trigger a cascade of energy transfer in the acceptor beads, resulting in light emission. To quantify the amount of Aβ42 in the cell supernatant, monoclonal antibody specific to the C-terminus of Aβ42 (JRF/cAβ42/26) was coupled to the receptor beads and biotinylated antibody specific to the N-terminus of Aβ (JRF/AβN/25) was used to react with the donor beads. To quantify the amount of Aβtotal in the cell supernatant, monoclonal antibody specific to the N-terminus of Aβ (JRF/AβN/25) was coupled to the receptor beads and biotinylated antibody specific to the mid region of Aβ (biotinylated 4G8) was used to react with the donor beads.
(§4) To obtain the values reported in Table 12c, the data are calculated as percentage of the maximum amount of amyloid Beta 42 measured in the absence of the test compound. The sigmoidal dose response curves were analyzed using non-linear regression analysis with percentage of the control plotted against the log concentration of the compound. A 4-parameter equation was used to determine the IC50.
(In general: Alpha assays give light when donor and acceptor beads are brought close together.)

Experiment [4] has as its system Aβtotal. The experiment in a line: Screening for γ-secretase-modulating activity, Method 2: Aβtotal Alphalisa in supernatant of SKNBE2 cells carrying APP 695 wild type (Table 12c). To be noted: Method 2, Table 12c, incubated overnight. The procedure: as §1, §2, §3, §4

From patent US8546440B2, “Substituted bicyclic imidazole derivatives as gamma secretase modulators” (Janssen Pharmaceuticals, Inc., priority 2008, dated 2013) come the findings set out here.

Molecules are shown by their SMILES.

For the molecule `COCCCc1c(-c2ccc(F)cc2)nc2c(Nc3ccc(-n4cnc(C)n4)c(OC)c3)cccn12` [Compound 129], the IC50 (commonly the concentration that gives 50% inhibition) was 46 nM in the experiment on Aβ42 [1], above 10000 nM with Aβtotal [2], 74 nM with Aβ42 [3] and above 10000 nM with Aβtotal [4].

Consider `COCc1c(-c2ccccc2Cl)nc2c(Nc3ccc(-n4cnc(C)c4)c(F)c3)cccn12` [Compound 103], for which the IC50 in the experiment with Aβ42 [1] is 13 nM; in the experiment on Aβtotal [2], above 3020 nM; in the experiment with Aβ42 [3], 19 nM; with Aβtotal [4], above 10000 nM.

As to `COc1cc(Nc2cccn3cc(-c4cc(C#N)ccc4C)nc23)ccc1-n1cnc(C)n1` [Compound 135], the IC50 with Aβ42 [1] (Homo sapiens) was 631 nM; in the experiment on Aβtotal [2] (Homo sapiens) it was above 10000 nM; with Aβ42 [3] (Homo sapiens) it was 102 nM; in the experiment on Aβtotal [4] (Homo sapiens) it was above 10000 nM.

Consider `Cc1cn(-c2ccc(Nc3cccn4cc(C5CC5)nc34)cc2F)cn1` [Compound 120], for which the IC50 in the experiment with Aβ42 [1] (Homo sapiens) is 589 nM; in the experiment with Aβtotal [2] (Homo sapiens), above 30200 nM; with Aβ42 [3] (Homo sapiens) it was 363 nM; in the experiment on Aβtotal [4] (Homo sapiens), above 10000 nM.

As for `COc1cc(Nc2nccn3cc(-c4ccc(F)cc4C)nc23)ccc1-n1cnc(C)n1` [Compound 176], the IC50 with Aβ42 [1] (Homo sapiens) is 324 nM; in the experiment on Aβtotal [2] (Homo sapiens) it was above 10000 nM; in the experiment with Aβ42 [3] (Homo sapiens), 107 nM; in the experiment with Aβtotal [4] (Homo sapiens) it was 8320 nM.

As for `CCOC(=O)c1cn2cccc(Nc3ccc(-n4cnc(C)c4)c(OC)c3)c2n1` [Compound 113], the IC50 in the experiment on Aβ42 [1] is 38 nM; in the experiment on Aβtotal [2], above 3020 nM; in the experiment with Aβ42 [3], 145 nM; with Aβtotal [4], above 10000 nM.

With `Cc1cn(-c2ccc(Nc3cccn4cc(C)nc34)cc2F)cn1` [Compound 119], the IC50 in the experiment with Aβ42 [1] (Homo sapiens) was 1660 nM; in the experiment on Aβtotal [2] (Homo sapiens) it was above 3020 nM; in the experiment on Aβ42 [3] (Homo sapiens) it was 603 nM; in the experiment with Aβtotal [4] (Homo sapiens), 6170 nM.

On to `COc1cc(Nc2cc(C(F)(F)F)cn3cc(C(C)(C)O)nc23)ccc1-n1cnc(C)c1` [Compound 151], for which the IC50 in the experiment with Aβ42 [1] is 513 nM; in the experiment on Aβtotal [2] it was above 3020 nM; in the experiment with Aβ42 [3] it was 219 nM; in the experiment on Aβtotal [4], above 10000 nM.

Consider `Cc1cn(-c2ccc(Nc3cc(C(F)(F)F)nn4cc(C5CCOCC5)nc34)cc2F)cn1` [Compound 168], for which the IC50 in the experiment with Aβ42 [1] was 3020 nM; in the experiment with Aβtotal [2] it was above 3020 nM; in the experiment on Aβ42 [3], 380 nM; in the experiment on Aβtotal [4], 10000 nM.

On to `COc1cc(Nc2cccn3cc(CC(F)(F)F)nc23)ccc1-n1cnc(C)c1` [Compound 109], for which the IC50 was 15 nM with Aβ42 [1], above 3020 nM in the experiment with Aβtotal [2], 60 nM in the experiment with Aβ42 [3] and above 10000 nM in the experiment on Aβtotal [4].

Consider `CC(=O)N(C)Cc1c(-c2ccccc2Cl)nc2c(Nc3ccc(-n4cnc(C)c4)c(F)c3)cccn12` [Compound 102], for which the IC50 with Aβ42 [1] (Homo sapiens) is 10 nM; in the experiment with Aβtotal [2] (Homo sapiens) it was above 3020 nM; in the experiment with Aβ42 [3] (Homo sapiens) it was 14 nM; in the experiment with Aβtotal [4] (Homo sapiens) it was above 10000 nM.

Consider `COc1nc(Nc2cccn3cc(C)nc23)ccc1-n1cnc(C)c1` [Compound 144], for which the concentration for half-maximal inhibition (IC50) in the experiment on Aβ42 [1] is 100 nM; with Aβtotal [2] it was above 3020 nM; in the experiment on Aβ42 [3], 120 nM; in the experiment with Aβtotal [4], above 10000 nM.

With `Cc1cn(-c2ccc(Nc3cccn4cc(C5CCOCC5)nc34)cc2F)cn1` [Compound 118], the IC50 is 331 nM in the experiment with Aβ42 [1] (Homo sapiens), above 3020 nM in the experiment with Aβtotal [2] (Homo sapiens), 372 nM with Aβ42 [3] (Homo sapiens) and above 10000 nM in the experiment with Aβtotal [4] (Homo sapiens).

`CCOC(=O)c1cn2cc(C(F)(F)F)cc(Nc3ccc(-n4cnc(C)c4)c(OC)c3)c2n1` [Compound 155]: the IC50 in the experiment on Aβ42 [1] was 24 nM; in the experiment with Aβtotal [2], above 3020 nM; in the experiment with Aβ42 [3] it was 28 nM; in the experiment on Aβtotal [4], above 10000 nM.

For the molecule `COc1cc(Nc2cc(Cl)nn3cc(-c4cc(F)ccc4C)nc23)ccc1-n1cnc(C)c1` [Compound 157], the IC50 in the experiment with Aβ42 [1] was 102 nM; in the experiment on Aβtotal [2], above 3020 nM; with Aβ42 [3], 50 nM; in the experiment on Aβtotal [4], 7410 nM.

Take `COc1cc(Nc2cccn3cc(C4CCOCC4)nc23)ccc1-n1cnc(C)n1` [Compound 136]: the IC50 in the experiment with Aβ42 [1] (Homo sapiens) was 676 nM; with Aβtotal [2] (Homo sapiens), above 30200 nM; with Aβ42 [3] (Homo sapiens), 813 nM; in the experiment on Aβtotal [4] (Homo sapiens) it was above 10000 nM.

As to `COc1cc(Nc2nccn3cc(-c4ccc(F)cc4)nc23)ccc1-n1cnc(C)c1` [Compound 175], the half-maximal inhibitory concentration (IC50) is 41 nM in the experiment on Aβ42 [1], above 3020 nM in the experiment on Aβtotal [2], 72 nM in the experiment with Aβ42 [3] and 5250 nM with Aβtotal [4].

Turning to `Cc1cn(-c2ccc(Nc3cc(C(F)(F)F)nn4cc(C)nc34)cc2F)cn1` [Compound 173], the IC50 with Aβ42 [1] is above 3020 nM; in the experiment on Aβtotal [2], above 3020 nM; in the experiment on Aβ42 [3], above 10000 nM; in the experiment with Aβtotal [4], above 10000 nM.

Turning to `COc1cc(Nc2cccn3cc(CC4CCOCC4)nc23)ccc1-n1cnc(C)n1` [Compound 137], the IC50 with Aβ42 [1] (Homo sapiens) was 1380 nM; in the experiment on Aβtotal [2] (Homo sapiens) it was above 3020 nM; in the experiment on Aβ42 [3] (Homo sapiens) it was 871 nM; in the experiment with Aβtotal [4] (Homo sapiens), above 10000 nM.

Turning to `COc1cc(Nc2ccnn3cc(-c4cc(F)ccc4C)nc23)ccc1-n1cnc(C)c1` [Compound 159], the values for the IC50 in the experiment with Aβ42 [3] (Homo sapiens) and in the experiment with Aβtotal [4] (Homo sapiens) were 55 nM and 4790 nM, respectively.

For `Cc1cn(-c2ccc(Nc3cc(F)cn4cc(C5CCOCC5)nc34)cc2F)cn1` [Compound 149], the IC50 is 389 nM with Aβ42 [1], above 10000 nM in the experiment on Aβtotal [2], 174 nM in the experiment with Aβ42 [3] and above 10000 nM with Aβtotal [4].

As to `COCc1c(-c2ccc(F)cc2)nc2c(Nc3ccc(-n4cnc(C)n4)c(OC)c3)cccn12` [Compound 125], the IC50 in the experiment on Aβ42 [1] was 30 nM; in the experiment with Aβtotal [2], above 3020 nM; in the experiment with Aβ42 [3], 51 nM; in the experiment with Aβtotal [4], 7940 nM.

As to `COc1cc(Nc2cc(C3CCOCC3)nn3cc(C)nc23)ccc1-n1cnc(C)c1` [Compound 170], the results for the IC50 in the experiment on Aβ42 [3] and in the experiment with Aβtotal [4] were 447 nM and above 10000 nM, respectively.

As for `COc1nc(Nc2cccn3c(C)c(-c4ccccc4Cl)nc23)ccc1-n1cnc(C)c1` [Compound 139], the IC50 with Aβ42 [3] was determined as 5 nM; in the experiment on Aβtotal [4], 4270 nM.

In the case of `Cc1cn(-c2ccc(Nc3cccn4cc(CC5CCOCC5)nc34)cc2F)cn1` [Compound 115], the IC50 in the experiment with Aβ42 [3] (Homo sapiens) stood at 257 nM; with Aβtotal [4] (Homo sapiens), 8320 nM.

Take `COc1cc(Nc2cccn3c(C)c(-c4ccccc4Cl)nc23)ccc1-n1cnc(C)n1` [Compound 124]: the IC50 in the experiment on Aβ42 [1] (Homo sapiens) is 11 nM; with Aβtotal [2] (Homo sapiens), above 3020 nM; in the experiment with Aβ42 [3] (Homo sapiens), 18 nM; in the experiment on Aβtotal [4] (Homo sapiens), 9120 nM.

Consider `COc1cc(Nc2cccn3cc(C(C)(C)O)nc23)ccc1-n1cnc(C)c1` [Compound 121], for which the IC50 in the experiment with Aβ42 [3] was 1320 nM; in the experiment with Aβtotal [4] it was above 10000 nM.
